From the NIST ThermoML archive (doi:10.1021/je060271a)

Conditions: 343.15 K, Liquid, Vibrating tube method

CCCCCCC(=O)OCC(COC(=O)CCCCCC)(COC(=O)CCCCCC)COC(=O)CCCCCC [pentaerythritol tetraheptanoate]
Conditions | mass density [kg/m3]
476.1 kPa | 940.9
482 kPa | 941
488.1 kPa | 940.8
495.4 kPa | 940.9
502 kPa | 940.9
508.7 kPa | 940.9
517.2 kPa | 941
524.5 kPa | 941
532 kPa | 941.1
540.9 kPa | 940.9
548.4 kPa | 941
556.3 kPa | 941.1
566.3 kPa | 941.1
574.9 kPa | 941
583.8 kPa | 940.9
594.9 kPa | 941
603.8 kPa | 941
613.5 kPa | 941.1
625.7 kPa | 941.1
635.8 kPa | 941.1
646.5 kPa | 941
659.6 kPa | 940.9
671.2 kPa | 941.2
682.7 kPa | 941.2
697.1 kPa | 941.1
710.1 kPa | 941.2
724 kPa | 941.1
738.3 kPa | 941
752.5 kPa | 941.1
767.1 kPa | 941.2
785.4 kPa | 941.2
801.2 kPa | 941.1
817.7 kPa | 941.3
834.7 kPa | 941.2
856.1 kPa | 941.1
874 kPa | 941.2
893.8 kPa | 941.3
917.4 kPa | 941.2
938.8 kPa | 941.3
961.5 kPa | 941.3
984.8 kPa | 941.2
1008.1 kPa | 941.3
1031.5 kPa | 941.3
1061.2 kPa | 941.5
1083.6 kPa | 941.4
1098.2 kPa | 941.3
1114.7 kPa | 941.4
1128.5 kPa | 941.4
1142.9 kPa | 941.4
1159.9 kPa | 941.4
1174.6 kPa | 941.5
1189.9 kPa | 941.6
1208.5 kPa | 941.5
1224.5 kPa | 941.5
1241 kPa | 941.6
1261 kPa | 941.6
1278.5 kPa | 941.6
1296.2 kPa | 941.6
1314.1 kPa | 941.6
1336.3 kPa | 941.6
1355.4 kPa | 941.6
1375.4 kPa | 941.5
1441 kPa | 941.6
1467.4 kPa | 941.7
1489.7 kPa | 941.8
1512.2 kPa | 941.7
1535.7 kPa | 941.8
1564.1 kPa | 941.8
1588.8 kPa | 941.8
1613.6 kPa | 941.8
1644.5 kPa | 941.8
1671.3 kPa | 941.8
1699 kPa | 941.9
1727.1 kPa | 941.8
1762.2 kPa | 941.9
1792.2 kPa | 941.9
1821.9 kPa | 941.8
1847.4 kPa | 942
1859.8 kPa | 941.9
1867.2 kPa | 942
1876.6 kPa | 942
1884.6 kPa | 942.1
1892.9 kPa | 942
1901.2 kPa | 942
1911 kPa | 942.1
1919.1 kPa | 942
1927.8 kPa | 942.1
1937.7 kPa | 942.1
1946.9 kPa | 942.1
1955.4 kPa | 942.1
1964.1 kPa | 942.1
1974.3 kPa | 942.1
1983.3 kPa | 942.1
1992.2 kPa | 942
2001 kPa | 942.1
2012 kPa | 942.2
2021 kPa | 942.2
2030.2 kPa | 942.1
2040.9 kPa | 942.1
2050.5 kPa | 942.1
2059.8 kPa | 942.2
2069.4 kPa | 942.3
2079.3 kPa | 942.2
2090.4 kPa | 942.2
2099.8 kPa | 942.2
2111.2 kPa | 942.2
2121.3 kPa | 942.1
2130.8 kPa | 942.3
2142.6 kPa | 942.2
2152.5 kPa | 942.2
2162.2 kPa | 942.3
2172.5 kPa | 942.2
2184.4 kPa | 942.3
2195 kPa | 942.3
2206.1 kPa | 942.2
2216.5 kPa | 942.3
2228.9 kPa | 942.4
2239.4 kPa | 942.3
2249.8 kPa | 942.2
2260.8 kPa | 942.3
2273.8 kPa | 942.3
2284.7 kPa | 942.3
2295.3 kPa | 942.4
2308.5 kPa | 942.3
2319.6 kPa | 942.4
2330.5 kPa | 942.4
2344.6 kPa | 942.3
2356.7 kPa | 942.4
2368 kPa | 942.5
2379.5 kPa | 942.3
2390.7 kPa | 942.3
2405 kPa | 942.2
2416.9 kPa | 942.4
2428.7 kPa | 942.4
2442.8 kPa | 942.5
2454.7 kPa | 942.4
2466.9 kPa | 942.5
2481.6 kPa | 942.5
2493.9 kPa | 942.5
2506.3 kPa | 942.7
2518.9 kPa | 942.4
2534.2 kPa | 942.4
2546.7 kPa | 942.6
2559.3 kPa | 942.5
2574.1 kPa | 942.5
2587.4 kPa | 942.5
2600.6 kPa | 942.5
2616.2 kPa | 942.5
2629.4 kPa | 942.6
2642.8 kPa | 942.7
2656.5 kPa | 942.6
2672.6 kPa | 942.7
2686.5 kPa | 942.7
2700.9 kPa | 942.7
2714.7 kPa | 942.6
2731.4 kPa | 942.6
2745.6 kPa | 942.6
2759.8 kPa | 942.7
2777 kPa | 942.7
2791.7 kPa | 942.6
2806.1 kPa | 942.7
2823.8 kPa | 942.7
2838.2 kPa | 942.7
2853.3 kPa | 942.7
2871.1 kPa | 942.8
2886.2 kPa | 942.8
2902 kPa | 942.8
2917.3 kPa | 942.9
2935.8 kPa | 942.8
2951.4 kPa | 942.8
2967.4 kPa | 942.8
2986.5 kPa | 942.9
3002.7 kPa | 942.8
3018.9 kPa | 942.9
3038.1 kPa | 942.9
3054.6 kPa | 942.8
3071.2 kPa | 943
3088.2 kPa | 943
3108.3 kPa | 943
3125.5 kPa | 942.9
3142.7 kPa | 943
3163.3 kPa | 942.9
3181 kPa | 943
3198.1 kPa | 943
3219.1 kPa | 943
3237.1 kPa | 943
3254.6 kPa | 943
3276.5 kPa | 943.1
3294.7 kPa | 943.2
3313 kPa | 943.2
3335.1 kPa | 943.2
3354.3 kPa | 943.1
3373.4 kPa | 943.2
3392.3 kPa | 943
3411.7 kPa | 943.3
3435.1 kPa | 943.2
3454.3 kPa | 943.2
3473.9 kPa | 943.2
3497.6 kPa | 943.2
3517.4 kPa | 943.2
3537.3 kPa | 943.3
3561.7 kPa | 943.3
3582.2 kPa | 943.4
3603.3 kPa | 943.2
3625.8 kPa | 943.3
3646.8 kPa | 943.3
3672.1 kPa | 943.3
3693.4 kPa | 943.5
3715.2 kPa | 943.4
3736.7 kPa | 943.4
3763.2 kPa | 943.5
3785.2 kPa | 943.4
3807.8 kPa | 943.5
3834.6 kPa | 943.5
3857.8 kPa | 943.4
3885.7 kPa | 943.5
3909.5 kPa | 943.5
3934.6 kPa | 943.5
3958.1 kPa | 943.7
3981.8 kPa | 943.5
4005.9 kPa | 943.6
4035 kPa | 943.6
4059.1 kPa | 943.7
4088.5 kPa | 943.7
